Test [1] deals with D(1A) dopamine receptor (Sus scrofa) (UniProt P50130). In words: Displacement of [3H]SCH23390 from pig dopamine D1 receptor at 100 nM.
Test [2] addresses T1, D(2) dopamine receptor (Homo sapiens, UniProt P14416). Kind of test: Displacement of [3H]spiperone from human cloned dopamine D2 long receptor expressed in CHO cells at 100 nM. Format: cell-based.
The target in test [3] is T2, D(4) dopamine receptor (Homo sapiens) (UniProt P21917).
T2 sequence (whole entry): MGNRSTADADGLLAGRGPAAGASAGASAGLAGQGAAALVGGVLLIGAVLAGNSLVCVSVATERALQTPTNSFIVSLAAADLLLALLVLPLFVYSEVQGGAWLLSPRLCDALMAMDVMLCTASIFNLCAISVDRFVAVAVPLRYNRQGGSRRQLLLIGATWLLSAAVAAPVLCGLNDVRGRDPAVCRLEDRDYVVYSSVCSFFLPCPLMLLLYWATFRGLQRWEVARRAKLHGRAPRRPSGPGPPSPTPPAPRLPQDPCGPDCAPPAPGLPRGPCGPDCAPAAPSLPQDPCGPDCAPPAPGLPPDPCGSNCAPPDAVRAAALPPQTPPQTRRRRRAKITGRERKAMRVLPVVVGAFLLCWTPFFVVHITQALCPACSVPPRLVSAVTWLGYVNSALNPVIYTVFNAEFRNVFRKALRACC
Kind of test: Displacement of [3H]spiperone from human cloned dopamine D4.4 receptor expressed in CHO cells at 100 nM. The test is classed as cell-based. (In general: Loss of bound radioactivity is the signal in a displacement assay; it reports binding, not function.)

The target of the next test is T3, D(4) dopamine receptor (Homo sapiens, UniProt P21917).
T3 sequence (P21917 whole entry): T2 sequence (whole entry)
Kind of test: Displacement of [3H]spiroperidol from human cloned dopamine D4.4 receptor expressed in CHO cells. The test is classed as cell-based.

A further test has as its target D(1A) dopamine receptor (Bos taurus, UniProt Q95136).
Test [4] deals with T1, D(2) dopamine receptor. In words: biochemical.
Description: Displacement of [3H]SCH23390 from human cloned dopamine D2 long receptor expressed in CHO cells
In test [5] the target is T1, D(2) dopamine receptor. In words: biochemical. The source holds these as a separate data set.
Description: Displacement of [3H]spiroperidol from human cloned dopamine D2 short receptor expressed in CHO cells
A further test concerns the target D(3) dopamine receptor (Homo sapiens, UniProt P35462). In words: biochemical.

Sequence of D(1A) dopamine receptor (Sus scrofa) (P50130 whole entry): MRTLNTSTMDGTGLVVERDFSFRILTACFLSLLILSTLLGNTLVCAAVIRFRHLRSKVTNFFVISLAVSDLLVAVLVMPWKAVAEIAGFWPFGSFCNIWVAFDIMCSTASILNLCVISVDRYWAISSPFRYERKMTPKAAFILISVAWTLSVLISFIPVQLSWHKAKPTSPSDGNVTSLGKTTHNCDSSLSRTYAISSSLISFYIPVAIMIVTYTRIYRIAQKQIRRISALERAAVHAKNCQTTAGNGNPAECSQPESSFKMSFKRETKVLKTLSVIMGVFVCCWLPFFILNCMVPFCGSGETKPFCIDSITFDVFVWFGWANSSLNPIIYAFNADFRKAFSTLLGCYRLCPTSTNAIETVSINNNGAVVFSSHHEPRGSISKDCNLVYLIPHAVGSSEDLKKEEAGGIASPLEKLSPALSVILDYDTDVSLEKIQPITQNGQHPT
Sequence of D(1A) dopamine receptor (Q95136 whole entry): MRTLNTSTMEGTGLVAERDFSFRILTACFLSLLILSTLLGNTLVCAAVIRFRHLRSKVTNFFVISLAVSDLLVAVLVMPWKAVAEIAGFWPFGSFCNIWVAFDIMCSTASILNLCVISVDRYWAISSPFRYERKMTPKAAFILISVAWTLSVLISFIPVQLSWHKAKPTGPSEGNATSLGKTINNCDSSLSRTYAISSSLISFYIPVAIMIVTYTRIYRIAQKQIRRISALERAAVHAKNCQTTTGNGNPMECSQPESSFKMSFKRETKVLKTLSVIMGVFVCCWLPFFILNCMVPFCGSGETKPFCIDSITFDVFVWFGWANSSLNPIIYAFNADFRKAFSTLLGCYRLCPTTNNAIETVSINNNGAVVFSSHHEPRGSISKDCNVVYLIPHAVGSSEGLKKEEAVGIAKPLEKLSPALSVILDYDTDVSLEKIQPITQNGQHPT
Sequence of D(3) dopamine receptor (P35462 whole entry): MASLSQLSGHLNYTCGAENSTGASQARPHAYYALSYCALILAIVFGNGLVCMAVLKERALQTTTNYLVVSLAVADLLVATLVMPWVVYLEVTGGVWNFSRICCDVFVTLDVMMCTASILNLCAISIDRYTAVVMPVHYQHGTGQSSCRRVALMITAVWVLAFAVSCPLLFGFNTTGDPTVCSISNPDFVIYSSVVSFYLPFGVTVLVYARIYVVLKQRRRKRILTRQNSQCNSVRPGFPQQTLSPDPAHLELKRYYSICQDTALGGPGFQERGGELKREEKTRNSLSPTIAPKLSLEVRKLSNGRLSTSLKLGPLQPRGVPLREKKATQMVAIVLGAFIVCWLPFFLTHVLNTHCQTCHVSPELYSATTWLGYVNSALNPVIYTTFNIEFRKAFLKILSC
T1 sequence (P14416 whole entry): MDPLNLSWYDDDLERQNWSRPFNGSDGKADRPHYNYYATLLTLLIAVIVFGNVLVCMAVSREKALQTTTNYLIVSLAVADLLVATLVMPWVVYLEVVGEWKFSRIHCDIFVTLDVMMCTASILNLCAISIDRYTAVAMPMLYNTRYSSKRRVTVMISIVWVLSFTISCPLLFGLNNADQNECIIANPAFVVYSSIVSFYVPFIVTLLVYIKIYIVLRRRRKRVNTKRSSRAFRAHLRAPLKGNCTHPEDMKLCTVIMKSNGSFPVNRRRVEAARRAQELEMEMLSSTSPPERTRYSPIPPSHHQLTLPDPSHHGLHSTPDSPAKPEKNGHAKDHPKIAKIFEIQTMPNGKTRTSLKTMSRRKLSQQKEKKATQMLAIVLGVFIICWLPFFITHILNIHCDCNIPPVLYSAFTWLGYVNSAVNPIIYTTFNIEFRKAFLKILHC
Description for D(3) dopamine receptor: Displacement of [3H]spiroperidol from human cloned dopamine D3 receptor expressed in CHO cells

For orientation: Ki means a dissociation constant, usually derived from enzyme kinetics or from competition with a known ligand. Low readings indicate higher affinity, high ones lower affinity. Turning to `COc1ccc(N2CCN(Cc3c(C)nc4cc(C)nc(C)n34)CC2)cc1`, the Activity (in test [1]; at D(2) dopamine receptor [2]; in test [3]) was 0% throughout. Besides, the Ki was 960 nM on D(4) dopamine receptor; 6600 nM at D(1A) dopamine receptor; 260 nM on D(2) dopamine receptor [4]; 160 nM on D(2) dopamine receptor [5]; 8.5 nM on D(3) dopamine receptor.

As to `Cc1cc2ncc(CN3CCN(c4ccccn4)CC3)n2c(C)n1`, the Activity (in test [1]; at D(2) dopamine receptor [2]; in test [3]) was 0% in each case.

For the molecule `Cn1c(N2CCOCC2)nc2c(CN3CCN(c4ccccc4)CC3)c[nH]c2c1=O`, the Ki on D(4) dopamine receptor amounted to 25 nM; at D(1A) dopamine receptor it was 520 nM; on D(2) dopamine receptor [4], 1100 nM; on D(2) dopamine receptor [5] it was 730 nM; on D(3) dopamine receptor, 2700 nM.

Regarding `Cc1cc2ncc(CN3CCN(c4ccc(Cl)c(Cl)c4)CC3)n2c(C)n1`, the Activity (in test [1]; on D(2) dopamine receptor [2]; in test [3]) was 0% each time.

On to `COc1ccc(N2CCN(Cc3cnc4cc(OC)nc(OC)n34)CC2)cc1`, for which the Activity turned out to be 0% in test [1], 20% at D(2) dopamine receptor [2] and 0% in test [3].

Consider `Cc1cc2ncc(CN3CCN(c4ccccn4)CC3)n2cn1`, for which the Activity (in test [1]; at D(2) dopamine receptor [2]; in test [3]) was 0% each time.

`Cc1cc2nc(C)c(CN3CCN(c4ccc(F)cc4)CC3)n2c(C)n1`: the Ki stood at 360 nM at D(4) dopamine receptor; 12000 nM on D(1A) dopamine receptor; 4700 nM at D(2) dopamine receptor [4]; 3500 nM on D(2) dopamine receptor [5]; 22000 nM on D(3) dopamine receptor.

In the case of `Cc1cc2nc(C)c(CN3CCN(c4ccc(Cl)c(Cl)c4)CC3)n2c(C)n1`, the Ki at D(4) dopamine receptor was found to be 21 nM; at D(1A) dopamine receptor, 2100 nM; at D(2) dopamine receptor [4], 3300 nM; on D(2) dopamine receptor [5], 5500 nM; on D(3) dopamine receptor, 1300 nM.

Regarding `COc1ccc(N2CCN(Cc3cnc4cc(C)ncn34)CC2)cc1`, the Activity (in test [1]; at D(2) dopamine receptor [2]; in test [3]) was 0% each time.

`Cc1cc2nc(C)c(CN3CCN(c4ccccn4)CC3)n2cn1`: the Activity in test [1] amounted to 0%; at D(2) dopamine receptor [2], 0%; in test [3] it was 40%.

On to `Cn1c(N2CCCC2)nc2c(CN3CCN(c4ccc(Cl)c(Cl)c4)CC3)c[nH]c2c1=O`, for which the Ki is 3.4 nM on D(4) dopamine receptor; 1500 nM at D(1A) dopamine receptor; 570 nM on D(2) dopamine receptor [4]; 380 nM at D(2) dopamine receptor [5]; 480 nM at D(3) dopamine receptor.

As to `Cc1cc2ncc(CN3CCN(c4ccc(Cl)cc4)CC3)n2c(C)n1`, the Activity (in test [1]; on D(2) dopamine receptor [2]; in test [3]) was 0% throughout.

For the molecule `Cc1cc2ncc(CN3CCN(c4ccccc4)CC3)n2cn1`, the Activity in test [1] worked out at 0%; on D(2) dopamine receptor [2], 0%; in test [3], 20%.

For `Cc1cc2ncc(CN3CCN(c4ccc(Cl)cc4)CC3)n2cn1`, the Activity (in test [1]; at D(2) dopamine receptor [2]; in test [3]) was 0% throughout.

As for `Cc1cc2ncc(CN3CCN(c4ccc(Cl)c(Cl)c4)CC3)n2cn1`, the Activity (in test [1]; on D(2) dopamine receptor [2]; in test [3]) was 0% throughout.

Consider `Cn1c(N2CCCC2)nc2c(CN3CCN(c4ccc(F)cc4)CC3)c[nH]c2c1=O`, for which the Ki amounted to 16 nM at D(4) dopamine receptor; 160 nM at D(1A) dopamine receptor; 840 nM on D(2) dopamine receptor [4]; 400 nM on D(2) dopamine receptor [5]; 630 nM on D(3) dopamine receptor.

Consider `CCOC(=O)c1nc2cc(C)nc(C)n2c1CN1CCN(c2ccc(OC)cc2)CC1`, for which the Activity (in test [1]; at D(2) dopamine receptor [2]; in test [3]) was 0% throughout.

On to `Cc1cc2nc(C)c(CN3CCN(c4ccc(Cl)cc4)CC3)n2cn1`, for which the Activity (in test [1]; on D(2) dopamine receptor [2]; in test [3]) was 0% in each case.

Consider `Cc1cc2ncc(CN3CCN(c4ccccc4)CC3)n2c(C)n1`, for which the Activity (in test [1]; at D(2) dopamine receptor [2]; in test [3]) was 0% each time.

For `COc1ccc(N2CCN(Cc3c(C)[nH]c4nc(N(C)C)ncc34)CC2)cc1`, the Activity (in test [1]; at D(2) dopamine receptor [2]; in test [3]) was 0% throughout.

Consider `COc1ccccc1N1CCN(Cc2cnc3cc(C)nc(C)n23)CC1`, for which the Ki turned out to be 66 nM at D(4) dopamine receptor; 11000 nM on D(1A) dopamine receptor; 1300 nM on D(2) dopamine receptor [4]; 570 nM on D(2) dopamine receptor [5]; 1500 nM on D(3) dopamine receptor.

As to `Cc1cc2nc(C)c(CN3CCN(c4ccccc4)CC3)n2cn1`, the Activity (in test [1]; at D(2) dopamine receptor [2]; in test [3]) was 0% throughout.

For `COc1cc2ncc(CN3CCN(c4ccccc4OC)CC3)n2c(OC)n1`, the Activity came to 0% in test [1], 0% on D(2) dopamine receptor [2] and 20% in test [3].

Take `Cc1cc2nc(C)c(CN3CCN(c4ccccc4)CC3)n2c(C)n1`: the Ki on D(4) dopamine receptor was 70 nM; at D(1A) dopamine receptor it was 11000 nM; at D(2) dopamine receptor [4] it was 8600 nM; on D(2) dopamine receptor [5], 11000 nM; at D(3) dopamine receptor it was 4200 nM.

As for `COc1ccc(N2CCN(Cc3cnc4ccncn34)CC2)cc1`, the Activity (in test [1]; on D(2) dopamine receptor [2]; in test [3]) was 0% throughout.

Turning to `Cn1c(N2CCCC2)nc2c(CN3CCN(c4ccccn4)CC3)c[nH]c2c1=O`, the Ki on D(4) dopamine receptor was 2.8 nM; at D(1A) dopamine receptor it was 790 nM; at D(2) dopamine receptor [4] it was 270 nM; at D(2) dopamine receptor [5], 150 nM; on D(3) dopamine receptor, 310 nM.

`Cc1cc2nc(C)c(CN3CCN(c4ccc(Cl)c(Cl)c4)CC3)n2cn1`: the Activity in test [1] is 0%; on D(2) dopamine receptor [2], 0%; in test [3] it was 20%.

As to `Clc1nccc2c(CN3CCN(c4ccccc4)CC3)c[nH]c12`, the Ki amounted to 6.4 nM on D(4) dopamine receptor; 6800 nM on D(1A) dopamine receptor; 2600 nM at D(2) dopamine receptor [4]; 2900 nM on D(2) dopamine receptor [5]; 6100 nM on D(3) dopamine receptor.

For the molecule `COc1ccccc1N1CCN(Cc2cnc3cc(C)ncn23)CC1`, the Activity (in test [1]; at D(2) dopamine receptor [2]; in test [3]) was 0% in each case.

In the case of `Cc1cc2nc(C)c(CN3CCN(c4ccc(Cl)cc4)CC3)n2c(C)n1`, the Ki came out at 66 nM on D(4) dopamine receptor; 7100 nM at D(1A) dopamine receptor; 26000 nM on D(2) dopamine receptor [4]; 57000 nM on D(2) dopamine receptor [5]; 3100 nM at D(3) dopamine receptor.

On to `CCOC(=O)c1nc2cc(C)nc(C)n2c1CN1CCN(c2ccccc2OC)CC1`, for which the Activity (in test [1]; on D(2) dopamine receptor [2]; in test [3]) was 0% throughout.

`Cn1c(N2CCCC2)nc2c(CN3CCN(c4ccccc4)CC3)c[nH]c2c1=O`: the Ki on D(4) dopamine receptor came to 3.8 nM; on D(1A) dopamine receptor, 250 nM; at D(2) dopamine receptor [4] it was 390 nM; at D(2) dopamine receptor [5], 180 nM; on D(3) dopamine receptor, 330 nM.

With `COc1ccc(N2CCN(Cc3cnc4cc(C)nc(C)n34)CC2)cc1`, the Activity (in test [1]; at D(2) dopamine receptor [2]; in test [3]) was 0% each time.

On to `Cc1cc2nc(C)c(CN3CCN(c4ccccn4)CC3)n2c(C)n1`, for which the Ki at D(4) dopamine receptor stood at 120 nM; on D(1A) dopamine receptor it was 22000 nM; on D(2) dopamine receptor [4], 17000 nM; on D(2) dopamine receptor [5] it was 10000 nM; on D(3) dopamine receptor, 640 nM.
